Results taken from BindingDB's records for doi:10.1021/jm800043g (Amgen, 2008).

Each molecule was assayed against Hepatocyte growth factor receptor (Homo sapiens, UniProt P08581) (assay: HTRF Kinase Inhibition Assay). Settings: pH 7.4; 22 °C.
Description: In vitro kinase assays were done to establish IC50 values against recombinant enzymes using homogeneous time-resolved fluorescence (HTRF) assay. Molecules were tested in a 10-point serial dilution using an ATP concentration of two thirds Km values that were determined for the enzymes and calculated using the Eadie-Hofstee and Lineweaver-Burke methods. The fluorescence ratios were read on a Rubystar instrument (BMG labtech Inc.).

In order of falling IC50:
1. COc1ccc2c(OCc3nnc4ccc(-c5ccsc5)nn34)ccnc2c1 [7-methoxy-4-{[6-(thiophen-3-yl)-[1,2,4]triazolo[4,3-a]pyridazin-3-yl]methoxy}quinoline]  4 nM
2. COc1ccc2c(OCc3nnc4ccc(-c5cccs5)nn34)ccnc2c1 [7-methoxy-4-{[6-(thiophen-2-yl)-[1,2,4]triazolo[4,3-a]pyridazin-3-yl]methoxy}quinoline]  2 nM
3. COc1ccc2c(OCc3nnc4ccc(-c5cc(C)cs5)nn34)ccnc2c1 [7-methoxy-4-{[6-(4-methylthiophen-2-yl)-[1,2,4]triazolo[4,3-a]pyridazin-3-yl]methoxy}quinoline]  1 nM
